{
  "source": "patent US9073851B2",
  "about": "“Compositions and methods for treating cancer” (Board of Regents, The University of Texas System, priority 2011, dated 2015)",
  "key": {"MDA-MB-231 cells": {"test_system": "MDA-MB-231 cells", "experiment": "MTS cell viability/proliferation assay", "assay_type": "cell-based, human", "conditions": "triple negative", "from_the_text": "Viable and dead cells were detected by the trypan blue exclusion assay, the viability and/or proliferation of cells a MTS assay was used [Akar U, et al. Autophagy 2008: 4:669-79].\nViable and dead cells were detected by the trypan blue exclusion assay, where viable cells (non-stained) with intact membrane are able to exclude the dye, while dead cells take up the coloring blue agent from the media. To quantitatively assess the viability and/or proliferation of cells a MTS assay was used, which incorporates a redox indicator that changes color in response to metabolic activity. To study cell viability in response to CaMK-III siRNA or control siRNA and plasmid encoding CaMK-III or empty plasmid transfection cells were seeded in 96-well plates at a density of 3×10^3 cells per well in 100 μl of medium. Next day the medium was removed and cells were transfected with siRNA at different concentrations in 100 μl of medium plus transfection mix. […] Plates were read at dual wavelengths (570-595 nm) in an Elisa plate reader (Kinetic Microplate Reader, Molecular Devices Corporation, Sunnyvale, Calif.).\n(aka proliferation assay, in this case MTS assay was used. MTS, MTT, XTT all similar assays often used as cell viability/toxicity assay). […] Plates were read at 490 nm wavelength in an Elisa plate reader (Kinetic Microplate Reader, Molecular Devices Corporation, Sunnyvale, Calif.)."}, "MCF7 cells": {"test_system": "MCF7 cells", "experiment": "MTS cell viability/proliferation assay", "assay_type": "cell-based, human", "from_the_text": "(§1) Viable and dead cells were detected by the trypan blue exclusion assay, where viable cells (non-stained) with intact membrane are able to exclude the dye, while dead cells take up the coloring blue agent from the media. To quantitatively assess the viability and/or proliferation of cells a MTS assay was used, which incorporates a redox indicator that changes color in response to metabolic activity. To study cell viability in response to CaMK-III siRNA or control siRNA and plasmid encoding CaMK-III or empty plasmid transfection cells were seeded in 96-well plates at a density of 3×10^3 cells per well in 100 μl of medium. Next day the medium was removed and cells were transfected with siRNA at different concentrations in 100 μl of medium plus transfection mix. Two days after transfection, the medium was removed and replaced by 180 μl of medium plus 20 μl of MTS and the cells were incubated under normal conditions until the color changed. Plates were read at dual wavelengths (570-595 nm) in an Elisa plate reader (Kinetic Microplate Reader, Molecular Devices Corporation, Sunnyvale, Calif.).\n(§2) (aka proliferation assay, in this case MTS assay was used. MTS, MTT, XTT all similar assays often used as cell viability/toxicity assay). Cell viability in response to compounds such as 5NT and KD06 was studied with a tetrazolium/formazan based assay (MTS, Celltiter 96 aqueous one solution cell proliferation assay, Promega, WI) [Akar U, Chaves-Reyez A, Barria g Tari A, Sanguino A, Kondo Y, Kondo S, Arun B, Lopez-Berestein G, Ozpolat B: Silencing of Bcl-2 expression by small interfering RNA induces autophagic cell death in MCF-7 breast cancer cells. Autophagy 2008, 4:669-679, Ozpolat 2007 MCR]. Cells were seeded in 96 wells plates at a density of 1.5 to 3.0×10^3 cells per well in 100 μl of medium. Next day the medium was removed and cells were treated with the drug in 100 μl of medium for 72 hours. Plates were read at 490 nm wavelength in an Elisa plate reader (Kinetic Microplate Reader, Molecular Devices Corporation, Sunnyvale, Calif.)."}, "MCF7/Dox resistant cells": {"test_system": "MCF7/Dox resistant cells", "experiment": "MTS cell viability/proliferation assay", "assay_type": "cell-based, human", "from_the_text": "as §1, §2"}, "MCF10A": {"test_system": "MCF10A", "experiment": "MTS cell viability assay on normal breast epithelium", "assay_type": "cell-based, human", "conditions": "at IC50 to IC90 doses in breast cancer cells (MCF7)", "from_the_text": "as §2"}, "breast cancer cells": {"test_system": "breast cancer cells", "experiment": "Cell viability assay, breast cancer cell panel or cell line not stated", "assay_type": "cell-based, human", "conditions": "incl. MDA-468, BT20, MDa-MB231, SKBR3, MDA-MB435, T47D, ZR75.1", "from_the_text": "as §2"}, "MDA-MB-231 tumors": {"test_system": "MDA-MB-231 tumors", "experiment": "Orthotopic MDA-MB-231 xenograft breast cancer model", "assay_type": "in vivo, nude mice", "conditions": "DOPC nanoliposomal, i.v., 5.8 mg/kg twice weekly (4 weeks)", "procedure": "FIG. 3. New role for triptan derivatives targeting the 5-HT1B receptor as a therapeutic modality for breast cancer. (A). […] Treatments, twice per week (4 weeks) were safe and effective. Methods: Phospholipid dioleoylphosphatidylcholine (DOPC) and triptan 5-NT were mixed in tertiary butanol at a lipid:5-NT ratio of 10:1 (w/w). Tween 20 was added at a ratio of 1:20 ratio (w/w) and the mixture lyophilized overnight. The powder was reconstituted in saline and sonicated for one minute. The liposome formulation was injected (100 μl) into the tail vein. (B). 5-NT induces apoptotic cell death of ER(+) MCF-7 cells. (C). […] (D). […] (E). The 5-HT1B receptor is over-expressed in triple negative highly aggressive, and metastatic breast cancer cells as well as drug resistant (i.e. tamoxifen and doxorubicin) breast cancer cells. Methods: Blots were visualized with a FluorChem 8900 imager and quantified by a densitometer using the Alpha Imager application program.\nFor in vivo delivery siRNA was incorporated into dioleoyl-sn-glycero-3-phosphocholine (DOPC). DOPC and siRNA were mixed in the presence of excess tertiary butanol at a ratio of 1:10 (w/w) siRNA/DOPC [Shaw L M. Methods Mol Biol 2005: 294:97-105]. Before in vivo administration, this preparation was hydrated with normal 0.9% saline in 100 μL for i.v injection per mouse. […]"}, "5-HT1B/1D receptor": {"test_system": "5-HT1B/1D receptor", "experiment": "cAMP levels", "assay_type": "cell-based"}, "[1]": {"experiment": "Toxicity and body weight observation in mice"}},
  "data": [
    {"smiles": "CCCCCCCCCOc1ccc2[nH]cc(CCN)c2c1", "note": "[5-NT, 5-nonylytryptamine]", "values": [
      {"measurement": "inhibition of proliferation", "setting": "MDA-MB-231 cells", "result": "inhibits proliferation"},
      {"measurement": "selectivity for tumorigenic MCF-7 compared to non-tumorigenic MCF-10A", "setting": "MCF7 cells", "result": "much higher selectivity"},
      {"measurement": "inhibition of proliferation", "setting": "MCF7 cells; ER(+)", "result": "inhibits proliferation"},
      {"measurement": "inhibition of proliferation", "setting": "MCF7/Dox resistant cells", "result": "inhibits proliferation"},
      {"measurement": "toxicity against normal breast epithelium", "setting": "MCF10A", "result": "not toxic"},
      {"measurement": "cell survival (O.D.) in a large panel of breast cancer cells", "setting": "breast cancer cells", "result": "effective against almost all breast cancer cell lines"},
      {"measurement": "tumor growth", "setting": "MDA-MB-231 tumors", "result": "significantly inhibits growth"},
      {"measurement": "cAMP levels", "setting": "5-HT1B/1D receptor", "result": "decrease cAMP levels"},
      {"measurement": "toxicity (weight loss)", "setting": "[1]; high dose of 50 mg/kg", "result": "without displaying any toxicity"},
      {"measurement": "body weight", "setting": "[1]; liposome incorporated, i.v., 10 mg/kg, at least 15 doses, 4 weeks", "result": "did not lose any weight"}
    ]}
  ]
}
